The target of one assay is T1, FXR LBD (Homo sapiens, UniProt Q96RI1).
T1 construct: purchased ThermoFisher Scientific PV4833
T1 sequence (Q96RI1 262-486 limits assumed): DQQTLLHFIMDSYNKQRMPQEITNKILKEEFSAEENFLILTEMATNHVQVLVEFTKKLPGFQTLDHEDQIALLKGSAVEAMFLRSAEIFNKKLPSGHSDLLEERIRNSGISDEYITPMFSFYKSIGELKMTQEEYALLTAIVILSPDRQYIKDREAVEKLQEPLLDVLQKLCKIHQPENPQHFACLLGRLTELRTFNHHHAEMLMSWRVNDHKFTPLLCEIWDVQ
Description: LanthaScreen TR-FRET FXR Coactivator Assay, antagonistic mode (SRC-2 peptide recruitment). The format is biochemical. Here is the method: The LanthaScreen® TR-FRET FXR Coactivator Assay (goat, PV4833, ThermoFisher Scientific) was performed to assess the affinity of tested compounds to FXR ligand-binding domain (LBD) in agonistic and antagonistic models. In the antagonistic assays, the FXR LBD was co-incubated with OCA or GW4064, together with tested ligands in increasing concentrations. The assay was performed according to the manufacturer’s protocols. […] Data have been obtained from three independent experiments performed in 4 replicates.

In assay [1] the test system is BSEP and SHP mRNA (FXR target genes), HepaRG cells. Kind of assay: RT-qPCR of FXR target genes in differentiated HepaRG cells. It is filed as cell-based, human. The settings on record: for BSEP mRNA level upregulated by OCA / SHP mRNA level upregulated by OCA: 40 µM with OCA 1 µM, 24 h; for BSEP and SHP mRNA expression, compound per se: without OCA. From the text:
Total RNA from HepaRG cells or primary human hepatocyte samples was isolated by the phenol/chloroform method with TRI-reagent (Merck) according to the manufacturer's protocol. The cDNA was synthesized using a Tetro cDNA Synthesis Kit (Bioline, now Meridian Bioscience, Memphis, United States), and RT-qPCR was run in the Quant Studio 6 instrument using the Fast Advanced Master Mix (ThermoFisher Scientific, Waltham, United States) according to the MIQE protocols. All the probes were obtained from ThermoFisher Scientific: ABCB11 (BSEP, Hs00184824_m1), NR0B2 (SHP, Hs00222677_m1).
FIGURE 6 Regulation of FXR downstream genes by 7-ELCA and 7β-propyl-CDCA in the presence or absence of 1 µM OCA as the potent FXR agonist. Real-time qPCR analysis of mRNA expression of (A,C) BSEP and (B,D) SHP genes was performed in terminally differentiated HepaRG hepatic cells (A,B), and in primary human hepatocytes (PHH) from one donor treated for 24 h (C,D). (E) SHP protein expression in HepaRG cells after 48 h treatment with OCA alone or in combination with 7-ELCA and 7β-propyl-CDCA. Data were normalized to B2M mRNA or GAPDH protein and are expressed relative to those of control (vehicle-treated) cells.

A further assay concerns the target T2, GPBAR1 (Homo sapiens, UniProt Q8TDU6).
T2 construct: host or cells: HepG2
T2 sequence (Q8TDU6 1-330): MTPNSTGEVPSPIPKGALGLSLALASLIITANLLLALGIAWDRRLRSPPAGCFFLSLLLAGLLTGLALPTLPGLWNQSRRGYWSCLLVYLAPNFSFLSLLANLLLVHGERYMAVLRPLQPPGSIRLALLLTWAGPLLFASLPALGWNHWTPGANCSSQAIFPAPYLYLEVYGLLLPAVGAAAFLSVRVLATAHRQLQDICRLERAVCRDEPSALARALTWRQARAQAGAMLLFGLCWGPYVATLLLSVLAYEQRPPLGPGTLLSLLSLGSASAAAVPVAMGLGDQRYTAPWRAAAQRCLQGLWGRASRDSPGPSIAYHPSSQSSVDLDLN
Description: GPBAR1 CRE-luc luciferase reporter assay in HepG2 cells. The format is cell-based. The settings on record: for CRE-luc activation compared to LCA (in words): 10 µM, 5 h, LCA 10 µM set as 100%. On the technique in general: In a reporter assay the amount or activity of a reporter protein is the signal.

For the next assay, the target named is T3, human FXR (Homo sapiens, UniProt Q96RI1).
T3 sequence (Q96RI1 1-486): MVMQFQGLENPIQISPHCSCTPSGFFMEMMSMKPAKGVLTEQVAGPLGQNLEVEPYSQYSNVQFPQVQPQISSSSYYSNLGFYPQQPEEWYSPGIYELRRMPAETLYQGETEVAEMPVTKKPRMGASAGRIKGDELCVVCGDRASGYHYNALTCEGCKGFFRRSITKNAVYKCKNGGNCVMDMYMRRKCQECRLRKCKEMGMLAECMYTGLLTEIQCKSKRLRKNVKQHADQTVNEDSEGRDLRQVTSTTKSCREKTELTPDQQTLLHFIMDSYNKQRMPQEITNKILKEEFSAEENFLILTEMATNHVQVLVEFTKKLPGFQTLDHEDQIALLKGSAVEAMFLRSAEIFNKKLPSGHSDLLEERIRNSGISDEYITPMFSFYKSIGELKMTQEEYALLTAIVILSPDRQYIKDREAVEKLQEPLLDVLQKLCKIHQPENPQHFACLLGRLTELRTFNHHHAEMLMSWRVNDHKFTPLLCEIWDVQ
T3 sequence (P19793 1-462 partner): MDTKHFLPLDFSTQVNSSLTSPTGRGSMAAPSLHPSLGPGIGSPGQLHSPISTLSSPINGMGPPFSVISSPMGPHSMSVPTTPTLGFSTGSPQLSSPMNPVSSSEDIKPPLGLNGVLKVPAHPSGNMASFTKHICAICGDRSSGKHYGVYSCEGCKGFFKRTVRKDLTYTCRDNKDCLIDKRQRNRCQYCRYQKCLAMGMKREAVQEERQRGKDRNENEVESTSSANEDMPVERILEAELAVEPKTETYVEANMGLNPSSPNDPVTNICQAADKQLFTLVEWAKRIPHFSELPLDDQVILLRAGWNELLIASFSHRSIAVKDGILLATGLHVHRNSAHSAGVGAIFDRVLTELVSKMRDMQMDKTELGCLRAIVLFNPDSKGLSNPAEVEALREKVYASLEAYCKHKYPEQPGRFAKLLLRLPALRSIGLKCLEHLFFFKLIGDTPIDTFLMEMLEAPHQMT
Kind of assay: FXR luciferase reporter gene assay (FXRE-luc) in HepG2 cells, antagonistic mode. It is filed as cell-based. The note with it: for IC50: HepG2, co-treatment with 1 µM OCA, 24 h, read-out: IC50, inhibition of OCA-induced FXR activation.

[2] abbreviates: GW4064 1 µM, read-out: IC50, inhibition of GW4064-promoted interaction of SRC-2 and FXR.
The mark [3] stands for this setting: OCA 1 µM, read-out: IC50, inhibition of OCA-induced recruitment of SRC-2 to FXR LBD.
Setting [4] is: HepG2, read-out: relative response (%) to the model FXR ligand activation (set to be 100%), GW4064 1 µM.

Each structure is given as a SMILES string. Where “and” joins values, the source holds several entries; their conditions need not be identical. Equal entries are not always repeated. Where two headings read alike, the source gives them in different places.

For orientation: IC50 means the concentration that gives 50% inhibition. As usually defined, the inhibition is the percentage by which the read-out fell short of the control. For `CCC[C@@]1(O)C[C@@H]2C[C@H](O)CC[C@]2(C)C2CC[C@@]3(C)C(CC[C@@H]3[C@H](C)CCC(=O)O)C21` (stereo partly drawn) [2f, 3α,7α-Dihydroxy-7β-propyl-5β-cholan-24-oic acid], the half-inhibitory concentration (IC50) on FXR LBD (setting [2]) stood at 13.8 ± 2.5 µM; at FXR LBD (setting [3]) it was 26.5 ± 2 µM; on human FXR it was 20.5 ± 1 µM. The “BSEP mRNA level upregulated by OCA” value in assay [1] is reported as “reduced”. For the same molecule, the “SHP mRNA level upregulated by OCA” value in assay [1] was “reduced”. For the same molecule, the “BSEP and SHP mRNA expression, compound per se” value in assay [1] was “did not have an impact”. Further, the “CRE-luc activation compared to LCA (in words)” value at GPBAR1 was “comparable activities to LCA”. The inhibition at 100 µM on human FXR (HepG2, at 100 µM, with 1 µM OCA, read-out: inhibition of FXR activation) is ~85%. In addition, the remaining activity at 10 µM at human FXR (HepG2, tested compound 10 µM, GW4064 1 µM, read-out: relative response (%) to the model FXR ligand activation (set to be 100%), GW4064 1 µM) is 85.7 ± 11.2%. The remaining activity at 40 µM at human FXR (HepG2, tested compound 40 µM, CDCA 20 µM, * = significant effect on cellular viability, read-out: relative response (%) to the model FXR ligand activation (set to be 100%), CDCA 20 µM) was 96.4 ± 0.7%; on human FXR (HepG2, tested compound 40 µM, GW4064 1 µM, * = significant effect on cellular viability, read-out: relative response (%) to the model FXR ligand activation (set to be 100%), GW4064 1 µM) it was 61.7 ± 10.8%.
The EC50 is the concentration at which the effect is half-maximal. With `C/C=C1\C[C@@H]2C[C@H](O)CC[C@]2(C)[C@H]2CC[C@]3(C)[C@@H]([C@H](C)CCC(=O)O)CC[C@H]3[C@H]12` [2a, (E)-3α-Hydroxy-7-ethylidene-5β-cholan-24-oic acid], the 50% inhibitory concentration (IC50) on FXR LBD (setting [2]) was 6.6 ± 2.9 µM; at FXR LBD (setting [3]) it was 18 ± 2.7 µM; on human FXR, 15 µM and 15.1 µM. The “BSEP mRNA level upregulated by OCA” value in assay [1] is listed as “reduced”. Further, the “SHP mRNA level upregulated by OCA” value in assay [1] is reported as “reduced”. Further, in assay [1], the “BSEP and SHP mRNA expression, compound per se” value is “did not have an impact”. In addition, at GPBAR1, the “CRE-luc activation compared to LCA (in words)” value is “significantly increase CRE-luc activation more than LCA”. The EC50 on GPBAR1 (abstract, read-out: EC50, GPBAR1 agonist) worked out at 26 nM. The inhibition at 100 µM on human FXR (HepG2, read-out: inhibition of FXR activation) is ~95%. Also, the remaining activity at 40 µM at human FXR (HepG2, read-out: relative response (%) to the model FXR ligand activation (set to be 100%), CDCA 20 µM) amounted to 67.3 ± 0.6%; on human FXR (setting [4]), 51.1 ± 2.9%. At human FXR (setting [4]), the remaining activity at 10 µM was 82.9 ± 2.3%. For the same molecule, the “capacity to antagonize OCA-stimulated FXR activation (in words)” value on human FXR (with 1 µM OCA, Figure 3B) was “most potent FXR antagonist”.

These data come from publication PMC8414367, “(E)-7-Ethylidene-lithocholic Acid (7-ELCA) Is a Potent Dual Farnesoid X Receptor (FXR) Antagonist and GPBAR1 Agonist Inhibiting FXR-Induced Gene Expression in Hepatocytes and Stimulating Glucagon-like Peptide-1 Secretion From Enteroendocrine Cells” (Frontiers in Pharmacology, 2021).
